Like-named read-outs stand apart in the source and are kept apart here.
Assays:
HeLa cells = test: HeLa cytotoxicity assay (CellTiter Glo, 72 h); type: cell-based; settings: Homo sapiens, read-out: Cell Proliferation Hela IC50
Experimental: (§1) HeLa cells (ATCC® CCL2™) in DMEM (Dulbecco Modified Eagle's Medium) without phenol red, Thermo, 11880, USA+10% FBS+1× PenStrep+1× Gln or HUVEC cells (ATCC® CRL1730™) in EBM-2 (Endothelial Growth Basal Medium, Lonza, CC3156)+EGM-2 SingleQuotsTMSupplements and Growth Factors (Lonza, CC4176)+1× Penicyllin-Streptomycin (PenStrep, ThermoFisher)+1× Glutamine, are plated in a 384 well plate (Thermo, 4334-11, USA) to a density of 2000 cells per well and let recover for four hours at 37° C., 5% CO2 in a humidified atmosphere. After the recovery, compounds are transferred to assay plates as per compound preparation method. Assay plates are then incubated at 37° C., 5% CO2 in a humidified atmosphere for 72 hours. Cell viability is measured by the CellTiter Glo (Promega, G8080, USA) as per manufacturer instruction.

[1] = tested on: Bloodstream form of Trypanosoma brucei, strain Lister 427; test: Trypanosoma brucei growth inhibition assay (CellTiter-Glo, 24 h); type: cell-based; settings: Trypanosoma brucei
How it was run: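 Growth read-out was CellTiter-Glo luminescence after 24 h at 37 °C incubation of 1500 bloodstream-form Lister 427 trypanosomes per well with compound, in supplemented IMDM containing 10% FBS and at most 0.25% DMSO.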

[2] = PK studies: plasma exposure and pharmacokinetic parameters after i.v., oral and i.p. administration; type: in vivo, C57BL/6 mice
Experimental: C57BL/6 mice were used to evaluate plasma exposure and pharmacokinetic parameters after intravenous, oral and intraperitoneal administration (5, 10, 30 mpk). In each animal an indwelling cannula was implanted in the right jugular vein for blood sampling. The surgery was performed under light anaesthesia (Ketamine-Xilazine (85 mg/kg and 2.5 mg/kg respectively i.m.) one day prior the experiment). During the kinetic study, all animals were housed individually in plastic metabolism cages, and were unrestrained throughout the experiment. Compounds (6 mg/mL) were dissolved in PEG400/H2O (50/50). After an overnight fast, the mice (15 animals per experiment) received an i.v. (via caudal vein) or an oral dose of the compound. Blood samples were collected at different times point after dosing. Plasma was separated immediately after blood sampling by centrifugation, and the plasma samples were kept frozen (−20° C.) until assayed by LC/MS/MS.
Analytical procedures: Plasma samples were extracted using Liquid Handling Robot MultiProbe Packard by protein precipitation with acetonitrile. Then the samples were centrifuged (3000 rpm×15 min at 4° C.) and the supernatant transferred and dried under nitrogen. The samples were reconstituted in water/acetonitrile 90/10 and then injected directly into an HPLC column. Sample analyses were performed using a an API 3000 or/and API 2000 or/and API 4000 Mass Spectrometer interfaced via the Turbo Ion Spray (ESI)/APCI to an LC system consisting of an HTS PAL CTC autosampler and an Agilen HP 1100 Binary Pump. The results are calculated using Analyst Software linear regression with 1/x*x weighting. The Assay Precision was calculated for the Quality Controls by Watson Lims database.
Pharmacokinetic Analysis: The plasma clearance (CLp) of the compounds were calculated (using Watson PK program) as the dose divided by the area under the plasma concentration-time curve from time zero to infinity (AUC0-∞). The apparent half-life was estimated from the slope of the terminal phase of the log plasma concentration-time data. The volume of distribution (Vdss) was determined using the following noncompartmental method: Vdss=(Dose IV×AUMC)/(AUC0-∞)2 where AUMC is the total area under the first moment of the drug concentration time curve from time zero to infinity. Bioavailability was estimated as the AUC0-∞ ratio following oral and intravenous administration, normalized for differences in dose.

HUVEC cells = test: HUVEC cytotoxicity assay (CellTiter Glo, 72 h); type: cell-based; settings: Homo sapiens, read-out: Cell Proliferation HUVEC IC50
Experimental: as §1

[3] = T. Brucei Growth Inibition Assay, class symbols, read-out: T. Brucei GI EC50
[4] = Table 3, read-out: T. brucei GI EC50

Row | SMILES | IC50 (HeLa cells) [nM] | EC50 [1, 3] [nM] | EC50 [1, 4] [nM] | EC50 ([1]; Table 4, read-out: T. brucei Growth inhibition EC50) [nM] | EC90 ([1]; Table 4, read-out: T. brucei Growth inhibition EC90) [nM] | clearance ([2]; C57BL/6, intravenous, 5 mpk, mouse, plasma clearance) [mL/min/kg] | AUC ([2]; C57BL/6, mouse, plasma, oral, 10 mpk) [µM·h] | bioavailability ([2]; C57BL/6, plasma, 10 mg/kg, mouse, 10 mpk, po, single oral dose, read-out: Oral Bioavailability F %) [%] | i.p. max brain concentration ([2]; mouse, after intraperitoneal injection (30 mpk), brain) [nM] | IC50 (HUVEC cells) [nM]
1 | COc1nc2ccccc2cc1-c1cnc(C2CN(CC3CCOC3)CCN2C(=O)Cn2c(C(F)(F)F)nc3ccccc32)[nH]1 (centres unmarked) [1-(2-(5-(2-methoxyquinolin-3-yl)-1H-imidazol-2-yl)-4-((tetrahydrofuran-3-yl)methyl)piperazin-1-yl)-2-(2-(trifluoromethyl)-1H-benzo[d]imidazol-1-yl)ethan-1-one] | 21500 | < 100 | 29.9 | 30 | 287 | 44.7 | 4.6 | 78 | 190 | 14100
2 | COc1nc2ccccc2cc1-c1cnc(C2CN(C3CCOCC3)CCN2C(=O)Cc2c(C)[nH]c3ccc(F)cc23)[nH]1 (centres unmarked) [2-(5-fluoro-2-methyl-1H-indol-3-yl)-1-(2-(5-(2-methoxyquinolin-3-yl)-1H-imidazol-2-yl)-4-(tetrahydro-2H-pyran-4-yl)piperazin-1-yl)ethan-1-one] | ≥ 25000 | 100 to 500 | 117 | – | – | – | – | – | – | 10600
3 | COc1nc2ccccc2cc1-c1cnc(C2CN(Cc3nccs3)CCN2C(=O)Cc2c(C)[nH]c3ccc(F)cc23)[nH]1 (centres unmarked) [2-(5-fluoro-2-methyl-1H-indol-3-yl)-1-(2-(5-(2-methoxyquinolin-3-yl)-1H-imidazol-2-yl)-4-(thiazol-2-ylmethyl)piperazin-1-yl)ethan-1-one] | ≥ 25000 | < 100 | 60.6 | – | – | – | – | – | – | 8200
4 | COc1nc2ccccc2cc1-c1cnc(C2CN(C)CCN2C(=O)Cc2c(C)[nH]c3ccc(F)cc23)[nH]1 (centres unmarked) [2-(5-fluoro-2-methyl-1H-indol-3-yl)-1-(2-(5-(2-methoxyquinolin-3-yl)-1H-imidazol-2-yl)-4-methylpiperazin-1-yl)ethan-1-one] | 18100 | 100 to 500 | 122 | – | – | – | – | – | – | 5680
5 | COc1ccc2[nH]c(C)c(CC(=O)N3CCN(CC4CCOC4)CC3c3ncc(-c4cc5ccccc5nc4OC)[nH]3)c2c1 (centres unmarked) [2-(5-methoxy-2-methyl-1H-indol-3-yl)-1-(2-(5-(2-methoxyquinolin-3-yl)-1H-imidazol-2-yl)-4-((tetrahydrofuran-3-yl)methyl)piperazin-1-yl)ethan-1-one] | ≥ 25000 | < 100 | 22.9 | – | – | – | – | – | – | 23200
6 | COc1ccc2[nH]c(C)c(CC(=O)N3CCN(C)CC3c3ncc(-c4cc5ccccc5nc4OC)[nH]3)c2c1 (centres unmarked) [2-(5-methoxy-2-methyl-1H-indol-3-yl)-1-(2-(5-(2-methoxyquinolin-3-yl)-1H-imidazol-2-yl)-4-methylpiperazin-1-yl)ethan-1-one] | ≥ 25000 | 100 to 500 | 139 | – | – | – | – | – | – | ≥ 25000
7 | COc1ccc2[nH]c(C)c(CC(=O)N3CCN(CC4CCOC4)CC3c3ncc(-c4ccc5ccccc5c4)[nH]3)c2c1 (centres unmarked) [2-(5-methoxy-2-methyl-1H-indol-3-yl)-1-(2-(5-(naphthalen-2-yl)-1H-imidazol-2-yl)-4-((tetrahydrofuran-3-yl)methyl)piperazin-1-yl)ethan-1-one] | ≥ 25000 | < 100 | 4.72 | – | – | – | – | – | – | 18700
8 | COc1ccc2[nH]c(C)c(CC(=O)N3CCN(C)CC3c3ncc(-c4ccc5ccccc5c4)[nH]3)c2c1 (centres unmarked) [2-(5-methoxy-2-methyl-1H-indol-3-yl)-1-(4-methyl-2-(5-(naphthalen-2-yl)-1H-imidazol-2-yl)piperazin-1-yl)ethan-1-one] | ≥ 25000 | < 100 | 39.9 | – | – | – | – | – | – | 21800
9 | CCC(=O)CCCN1CCN(C(=O)Cc2c(C)[nH]c3ccc(OC)cc23)C(c2ncc(-c3cc4ccccc4nc3OC)[nH]2)C1 (centres unmarked) [6-(4-(2-(5-methoxy-2-methyl-1H-indol-3-yl)acetyl)-3-(5-(2-methoxyquinolin-3-yl)-1H-imidazol-2-yl)piperazin-1-yl)hexan-3-one] | ≥ 25000 | < 100 | 34.2 | – | – | – | – | – | – | 21400
10 | CCC(=O)CCCN1CCN(C(=O)Cc2c(C)[nH]c3ccc(OC)cc23)C(c2nnc(-c3ccc4ccccc4c3)o2)C1 (centres unmarked) [6-(4-(2-(5-methoxy-2-methyl-1H-indol-3-yl)acetyl)-3-(5-(naphthalen-2-yl)-1,3,4-oxadiazol-2-yl)piperazin-1-yl)hexan-3-one] | ≥ 25000 | 100 to 500 | 350 | – | – | – | – | – | – | ≥ 25000
11 | CCC(=O)CCCN1CCN(C(=O)Cc2c(C)[nH]c3ccc(OC)cc23)C(c2ncc(-c3ccc4ccccc4c3)[nH]2)C1 (centres unmarked) [6-(4-(2-(5-methoxy-2-methyl-1H-indol-3-yl)acetyl)-3-(5-(naphthalen-2-yl)-1H-imidazol-2-yl)piperazin-1-yl)hexan-3-one] | 12300 | < 100 | 9.92 | – | – | – | – | – | – | ≥ 25000

From patent US10815222B2, “Compounds for use in the treatment of kinetoplastid infection” (C.N.C.C.S. S.c.a.r.l. COLLEZIONE NAZIONALE DEI COMPOSTI …, priority 2016, dated 2020)
